Results taken from patent publication US4591595A, “2-guanidino-4-(2-methyl-4-imidazolyl)thiazoles in the treatment of rheumatoid arthritis” (Pfizer Inc., priority 1985, dated 1986).
Like-named read-outs stand apart in the source and are kept apart here.

Tested on: Adjuvant-Induced Arthritis
Assay: Adjuvant-induced arthritis in the rat (Mycobacterium butyricum, subplantar; inhibition of hindpaw edema, primary and secondary lesions)
Format: in vivo, rat (adult male Wistar-Lewis)
Settings: for % Inhibition of Lesions, Secondary (mean ± SE): contralateral non-injected paw, day 16; for % Inhibition of Lesions, Primary (mean ± SE): injected paw, day 4; for ED50: Rattus norvegicus
Experimental: Adjuvant arthritis was induced in adult male Wistar-Lewis rats weighing 250-270 grams each (Charles River Breeding Laboratories, Kingston, N.Y.) by a single subplantar injection of 1 mg of Mycobacterium butyricum (Difco Laboratories, Lot #0640-33) suspended in 0.1 ml mineral oil as described by Walz et al. (Proc. Soc. Exptl. Biol. Med., 136: 907-910, 1971). Seven rats were used in each group. Orally administered drugs were dissolved in water and dilute sodium hydroxide was added as necessary to ensure solution; control groups received only water. After neutralization of the solutions to pH 7.0, a volume of 10 ml/kg body weight was given by intubation with a blunt end, 18-gauge needle. Doses of each drug were given daily starting 1 day before the injection of adjuvant and continuing until 16 days after the induction of the arthritic lesion.
The initial hindpaw volumes (Vi) were measured on the day of adjuvant injection and the resultant swelling was determined on the injected paw (Vf - Vi) on the 4th day following the adjuvant injection. This was considered to be the primary response or lesion. The swelling (Vf - Vi) measured 16 days after adjuvant injection on the contralateral, non-injected hindpaw constituted the secondary response or lesion. The rats were weighed at the start of the experiments as well as 4 and 16 days after the induction of the disease. Percent inhibition of edema was calculated according to the following formula: [formula]

Compound | effect on the course of adjuvant arthritis in rats (in words) (compound alone) | % Inhibition of Lesions, Secondary (mean ± SE) (oral 1.0 mg/kg daily) | % Inhibition of Lesions, Primary (mean ± SE) (oral 1.0 mg/kg daily) | % Inhibition of Lesions, Secondary (mean ± SE) (oral 3.3 mg/kg daily) | % Inhibition of Lesions, Primary (mean ± SE) (oral 3.3 mg/kg daily) | % Inhibition of Lesions, Secondary (mean ± SE) (oral 10.0 mg/kg daily) | % Inhibition of Lesions, Primary (mean ± SE) (oral 10.0 mg/kg daily) | ED50 (in words) (oral, linear regression of Table I data, secondary lesions) | activity against primary lesions (in words) (oral, primary lesions) | activity against secondary lesions (in words) (oral, secondary lesions) | ED50 (oral, linear regression of Table I data, primary lesions, read-out: ED50 against primary lesions) [mg/kg] | ED50 (oral, linear regression of Table I data, secondary lesions, read-out: ED50 against secondary lesions) [mg/kg] | % Inhibition of Lesions, Secondary (mean ± SE) (oral 0.10 mg/kg daily) | % Inhibition of Lesions, Primary (mean ± SE) (oral 0.10 mg/kg daily) | % Inhibition of Lesions, Secondary (mean ± SE) (oral 0.33 mg/kg daily) | % Inhibition of Lesions, Primary (mean ± SE) (oral 0.33 mg/kg daily)
Cc1nc(-c2csc(NC(=N)N)n2)c[nH]1.Cl.Cl [Compound A, 2-Guanidino-4-(2-methyl-4-imidazolyl)thiazole Dihydrochloride] | beneficial effect | 3 (3) % | 0 (6) % | 28 (4) % | 0 (3) % | 27 (3) % | 2 (2) % | no reliable ED50 could be extrapolated | no significant activity | significant activity |  |  |  |  |  | 
CN1C(C(=O)Nc2ccccn2)=C(O)c2ccccc2S1(=O)=O [Piroxicam, reference compound] |  | 64 (3) % | 45 (7) % |  |  |  |  |  |  |  | 2.6 | 0.45 | 26 (2) % | 29 (4) % | 43 (4) % | 33 (8) %
